Results taken from ChEMBL document CHEMBL5120906, “Oxalierpenes A and B, Unusual Indole-Diterpenoid Derivatives with Antiviral Activity from a Marine-Derived Strain of the Fungus Penicillium oxalicum” (J Nat Prod, 2022).

Key:
[1] = Therapeutic index, ratio of CC50 for Cytotoxicity against dog MDCK cells to IC50 for Antiviral activity against Influenza A virus A/WSN/33(H1N1) infected in dog MDCK cells; format: toxicity, cell-based; details: read-out: Ratio CC50/IC50
[2] = Cytotoxicity against dog MDCK cells assessed as reduction in cell viability; format: toxicity, cell-based, Canis lupus familiaris
[3] = Cytotoxicity against human HEp-2 cells assessed as reduction in cell viability; format: toxicity, cell-based
[4] = system: Respiratory syncytial virus; assay: Antiviral activity against Respiratory syncytial virus infected in human HEp-2 cells assessed as inhibition of virus-induced cytopathic effect by CPE inhibition assay; format: functional, organism-based
[5] = Therapeutic index, ratio of CC50 for Cytotoxicity against human HEp-2 cells to IC50 for Antiviral activity against Respiratory syncytial virus infected in human HEp-2 cells; format: toxicity, cell-based; details: read-out: Ratio CC50/IC50
Influenza A virus = assay: Antiviral activity against Influenza A virus A/WSN/33(H1N1) infected in dog MDCK cells assessed as inhibition of virus-induced cytopathic effect by CPE inhibition assay; format: functional, organism-based

Row | Compound | selectivity ratio [1] | CC50 [2] [µM] | CC50 [3] [µM] | IC50 [4] [µM] | selectivity ratio [5] | IC50 (Influenza A virus) [µM]
1 | NC(=O)c1nc(F)c[nH]c1=O [FAVIPIRAVIR] | > 28 | > 1000 |  |  |  | 
2 | NC(=O)c1ncn([C@@H]2O[C@H](CO)[C@@H](O)[C@H]2O)n1 [RIBAVIRIN] |  |  | > 1000 | 19 | > 54 | 
3 | CC1(C)C=C2C(=Cc3cc4c5c([nH]c4cc32)[C@@]2(C)[C@@H](CC[C@@]34O[C@@]6(O)[C@H](O)C(C)(C)O[C@H]6[C@@H]3C(=O)CC[C@]24C)C5)C(C)(C)O1 | 3.5 | 13 | 15 | 2.8 | 5.5 | 3.7
4 | CC1(C)C=C2C(=Cc3cc4c5c([nH]c4cc32)[C@@]2(C)[C@@H](CCC3=C([C@@H]4OC(C)(C)[C@@H](O)C4=O)C(=O)CC[C@@]32C)C5)C(C)(C)O1 | 2.8 | 27 | 31 | 6.7 | 4.6 | 9.4
